Measured values published in ChEMBL document CHEMBL3616405 (J Med Chem, 2015).

Columns and labels:
[1] = biological target: T1, Glucagon-like peptide 1 receptor (Homo sapiens, UniProt P43220); assay: Displacement of [125I]-GLP1 from human GLP1 receptor expressed in BHK cells after 2 hrs in absence of human serum albumin; format: cell-based
[2] = biological target: T1, Glucagon-like peptide 1 receptor; assay: Displacement of [125I]-GLP1 from human GLP1 receptor expressed in BHK cells after 2 hrs in presence of 2% human serum albumin; format: cell-based
[3] = biological target: T1, Glucagon-like peptide 1 receptor; assay: Agonist activity at human GLP1 receptor expressed in BHK cells after 3 hrs by CRE firefly luciferase reporter gene assay in absence of human serum albumin; format: functional, cell-based

T1 sequence (P43220 whole entry): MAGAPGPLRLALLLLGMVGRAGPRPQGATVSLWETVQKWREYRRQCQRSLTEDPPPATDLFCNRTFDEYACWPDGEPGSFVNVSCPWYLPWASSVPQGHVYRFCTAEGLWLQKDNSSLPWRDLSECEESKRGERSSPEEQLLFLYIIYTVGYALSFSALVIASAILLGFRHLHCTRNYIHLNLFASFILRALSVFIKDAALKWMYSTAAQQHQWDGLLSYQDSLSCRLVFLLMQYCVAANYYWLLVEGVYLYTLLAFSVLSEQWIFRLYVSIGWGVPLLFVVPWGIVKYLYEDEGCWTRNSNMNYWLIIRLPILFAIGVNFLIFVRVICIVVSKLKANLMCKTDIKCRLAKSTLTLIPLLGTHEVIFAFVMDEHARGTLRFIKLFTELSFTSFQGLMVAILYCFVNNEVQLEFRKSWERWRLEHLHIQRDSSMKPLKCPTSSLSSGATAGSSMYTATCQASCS

SMILES | IC50 [1] [pM] | IC50 [2] [pM] | EC50 [3] [pM]
CC[C@H](C)[C@H](NC(=O)[C@H](Cc1ccccc1)NC(=O)[C@H](CCC(=O)O)NC(=O)[C@H](CCCCNC(=O)COCCOCCNC(=O)COCCOCCNC(=O)CCCCCCCCCCCCCCC(=O)O)NC(=O)[C@H](C)NC(=O)[C@H](C)NC(=O)[C@H](CCC(N)=O)NC(=O)CNC(=O)[C@H](CCC(=O)O)NC(=O)[C@H](CC(C)C)NC(=O)[C@H](Cc1ccc(O)cc1)NC(=O)[C@H](CO)NC(=O)[C@H](CO)NC(=O)[C@@H](NC(=O)[C@H](CC(=O)O)NC(=O)[C@H](CO)NC(=O)[C@@H](NC(=O)[C@H](Cc1ccccc1)NC(=O)[C@@H](NC(=O)CNC(=O)[C@H](CCC(=O)O)NC(=O)C(C)(C)NC(=O)[C@@H](N)Cc1c[nH]cn1)[C@@H](C)O)[C@@H](C)O)C(C)C)C(=O)N[C@@H](C)C(=O)N[C@@H](Cc1c[nH]c2ccccc12)C(=O)N[C@@H](CC(C)C)C(=O)N[C@H](C(=O)N[C@@H](CCCNC(=N)N)C(=O)NCC(=O)N[C@@H](CCCNC(=N)N)C(=O)NCC(=O)O)C(C)C | 3250 | 12800 | 166
CC[C@H](C)[C@H](NC(=O)[C@H](Cc1ccccc1)NC(=O)[C@H](CCC(=O)O)NC(=O)[C@H](CCCCN)NC(=O)[C@H](C)NC(=O)[C@H](C)NC(=O)[C@H](CCC(N)=O)NC(=O)CNC(=O)[C@H](CCC(=O)O)NC(=O)[C@H](CC(C)C)NC(=O)[C@H](Cc1ccc(O)cc1)NC(=O)[C@H](CO)NC(=O)[C@H](CO)NC(=O)[C@H](CCCCNC(=O)COCCOCCNC(=O)COCCOCCNC(=O)CC[C@H](NC(=O)CCCCCCCCCCCCCCCCC(=O)O)C(=O)O)NC(=O)[C@H](CC(=O)O)NC(=O)[C@H](CO)NC(=O)[C@@H](NC(=O)[C@H](Cc1ccccc1)NC(=O)[C@@H](NC(=O)CNC(=O)[C@H](CCC(=O)O)NC(=O)C(C)(C)NC(=O)[C@@H](N)Cc1c[nH]cn1)[C@@H](C)O)[C@@H](C)O)C(=O)N[C@@H](C)C(=O)N[C@@H](Cc1c[nH]c2ccccc12)C(=O)N[C@@H](CC(C)C)C(=O)N[C@H](C(=O)N[C@@H](CCCCN)C(=O)NCC(=O)N[C@@H](CCCNC(=N)N)C(=O)NCC(=O)O)C(C)C | 500 | 25500 | 9.9
CCCCCCCCCCCCCCCCCCCC(=O)N[C@@H](CCC(=O)NCCOCCOCC(=O)NCCOCCOCC(=O)NCCCC[C@H](NC(=O)[C@H](C)NC(=O)[C@H](C)NC(=O)[C@H](CCC(N)=O)NC(=O)CNC(=O)[C@H](CCC(=O)O)NC(=O)[C@H](CC(C)C)NC(=O)[C@H](Cc1ccc(O)cc1)NC(=O)[C@H](CO)NC(=O)[C@H](CO)NC(=O)[C@@H](NC(=O)[C@H](CC(=O)O)NC(=O)[C@H](CO)NC(=O)[C@@H](NC(=O)[C@H](Cc1ccccc1)NC(=O)[C@@H](NC(=O)CNC(=O)[C@H](CCC(=O)O)NC(=O)C(C)(C)NC(=O)[C@@H](N)Cc1c[nH]cn1)[C@@H](C)O)[C@@H](C)O)C(C)C)C(=O)N[C@@H](CCC(=O)O)C(=O)N[C@@H](Cc1ccccc1)C(=O)N[C@H](C(=O)N[C@@H](C)C(=O)N[C@@H](Cc1c[nH]c2ccccc12)C(=O)N[C@@H](CC(C)C)C(=O)N[C@H](C(=O)N[C@@H](CCCNC(=N)N)C(=O)NCC(=O)N[C@@H](CCCNC(=N)N)C(=O)NCC(=O)O)C(C)C)[C@@H](C)CC)C(=O)O | 180 | 880 | 4.8
CC[C@H](C)[C@H](NC(=O)[C@H](Cc1ccccc1)NC(=O)[C@H](CCC(=O)O)NC(=O)[C@H](CCCCNC(=O)CCCCCCCCCCCCCCCCC(=O)O)NC(=O)[C@H](C)NC(=O)[C@H](C)NC(=O)[C@H](CCC(N)=O)NC(=O)CNC(=O)[C@H](CCC(=O)O)NC(=O)[C@H](CC(C)C)NC(=O)[C@H](Cc1ccc(O)cc1)NC(=O)[C@H](CO)NC(=O)[C@H](CO)NC(=O)[C@@H](NC(=O)[C@H](CC(=O)O)NC(=O)[C@H](CO)NC(=O)[C@@H](NC(=O)[C@H](Cc1ccccc1)NC(=O)[C@@H](NC(=O)CNC(=O)[C@H](CCC(=O)O)NC(=O)C(C)(C)NC(=O)[C@@H](N)Cc1c[nH]cn1)[C@@H](C)O)[C@@H](C)O)C(C)C)C(=O)N[C@@H](C)C(=O)N[C@@H](Cc1c[nH]c2ccccc12)C(=O)N[C@@H](CC(C)C)C(=O)N[C@H](C(=O)N[C@@H](CCCNC(=N)N)C(=O)NCC(=O)N[C@@H](CCCNC(=N)N)C(=O)NCC(=O)O)C(C)C | 1860 | 27000 | 269
CC[C@H](C)[C@H](NC(=O)[C@H](Cc1ccccc1)NC(=O)[C@H](CCC(=O)O)NC(=O)[C@H](CCCCNC(=O)COCCOCCNC(=O)CC[C@H](NC(=O)CCCNC(=O)CCCCCCCCCCCCCCCCC(=O)O)C(=O)O)NC(=O)[C@H](C)NC(=O)[C@H](C)NC(=O)[C@H](CCC(N)=O)NC(=O)CNC(=O)[C@H](CCC(=O)O)NC(=O)[C@H](CC(C)C)NC(=O)[C@H](Cc1ccc(O)cc1)NC(=O)[C@H](CO)NC(=O)[C@H](CO)NC(=O)[C@@H](NC(=O)[C@H](CC(=O)O)NC(=O)[C@H](CO)NC(=O)[C@@H](NC(=O)[C@H](Cc1ccccc1)NC(=O)[C@@H](NC(=O)CNC(=O)[C@H](CCC(=O)O)NC(=O)C(C)(C)NC(=O)[C@@H](N)Cc1c[nH]cn1)[C@@H](C)O)[C@@H](C)O)C(C)C)C(=O)N[C@@H](C)C(=O)N[C@@H](Cc1c[nH]c2ccccc12)C(=O)N[C@@H](CC(C)C)C(=O)N[C@H](C(=O)N[C@@H](CCCNC(=N)N)C(=O)NCC(=O)N[C@@H](CCCNC(=N)N)C(=O)NCC(=O)O)C(C)C | – | 20700 | 10.7
CC[C@H](C)[C@H](NC(=O)[C@H](Cc1ccccc1)NC(=O)[C@H](CCC(=O)O)NC(=O)[C@H](CCCCNC(=O)COCCOCCNC(=O)COCCOCCNC(=O)c1ccc(CN(CCC(=O)O)C(=O)CCCCCCCCCCCCCCCCC(=O)O)cc1)NC(=O)[C@H](C)NC(=O)[C@H](C)NC(=O)[C@H](CCC(N)=O)NC(=O)CNC(=O)[C@H](CCC(=O)O)NC(=O)[C@H](CC(C)C)NC(=O)[C@H](Cc1ccc(O)cc1)NC(=O)[C@H](CO)NC(=O)[C@H](CO)NC(=O)[C@@H](NC(=O)[C@H](CC(=O)O)NC(=O)[C@H](CO)NC(=O)[C@@H](NC(=O)[C@H](Cc1ccccc1)NC(=O)[C@@H](NC(=O)CNC(=O)[C@H](CCC(=O)O)NC(=O)C(C)(C)NC(=O)[C@@H](N)Cc1c[nH]cn1)[C@@H](C)O)[C@@H](C)O)C(C)C)C(=O)N[C@@H](C)C(=O)N[C@@H](Cc1c[nH]c2ccccc12)C(=O)N[C@@H](CC(C)C)C(=O)N[C@H](C(=O)N[C@@H](CCCNC(=N)N)C(=O)NCC(=O)N[C@@H](CCCNC(=N)N)C(=O)NCC(=O)O)C(C)C | 9190 | 51700 | –

Continued by falling IC50 [2], values first:

IC50 [1] [pM] | IC50 [2] [pM] | EC50 [3] [pM] | SMILES
60 | 17700 | 2.7 | CC[C@H](C)[C@H](NC(=O)[C@H](Cc1ccccc1)NC(=O)[C@H](CCC(=O)O)NC(=O)[C@H](CCCCN)NC(=O)[C@H](C)NC(=O)[C@H](C)NC(=O)[C@H](CCC(N)=O)NC(=O)[C@H](CCCCNC(=O)COCCOCCNC(=O)COCCOCCNC(=O)CC[C@H](NC(=O)CCCCCCCCCCCCCCCCC(=O)O)C(=O)O)NC(=O)[C@H](CCC(=O)O)NC(=O)[C@H](CC(C)C)NC(=O)[C@H](Cc1ccc(O)cc1)NC(=O)[C@H](CO)NC(=O)[C@H](CO)NC(=O)[C@@H](NC(=O)[C@H](CC(=O)O)NC(=O)[C@H](CO)NC(=O)[C@@H](NC(=O)[C@H](Cc1ccccc1)NC(=O)[C@@H](NC(=O)CNC(=O)[C@H](CCC(=O)O)NC(=O)C(C)(C)NC(=O)[C@@H](N)Cc1c[nH]cn1)[C@@H](C)O)[C@@H](C)O)C(C)C)C(=O)N[C@@H](C)C(=O)N[C@@H](Cc1c[nH]c2ccccc12)C(=O)N[C@@H](CC(C)C)C(=O)N[C@H](C(=O)N[C@@H](CCCCN)C(=O)NCC(=O)N[C@@H](CCCNC(=N)N)C(=O)NCC(=O)O)C(C)C
310 | 7550 | 87.3 | CC[C@H](C)[C@H](NC(=O)[C@H](Cc1ccccc1)NC(=O)[C@H](CCC(=O)O)NC(=O)[C@H](CCCNC(=N)N)NC(=O)[C@H](C)NC(=O)[C@H](C)NC(=O)[C@H](CCC(N)=O)NC(=O)CNC(=O)[C@H](CCC(=O)O)NC(=O)[C@H](CC(C)C)NC(=O)[C@H](Cc1ccc(O)cc1)NC(=O)[C@H](CO)NC(=O)[C@H](CO)NC(=O)[C@@H](NC(=O)[C@H](CC(=O)O)NC(=O)[C@H](CO)NC(=O)[C@@H](NC(=O)[C@H](Cc1ccccc1)NC(=O)[C@@H](NC(=O)CNC(=O)[C@H](CCC(=O)O)NC(=O)C(C)(C)NC(=O)[C@@H](N)Cc1c[nH]cn1)[C@@H](C)O)[C@@H](C)O)C(C)C)C(=O)N[C@@H](C)C(=O)N[C@@H](Cc1c[nH]c2ccccc12)C(=O)N[C@@H](CC(C)C)C(=O)N[C@H](C(=O)N[C@@H](CCCNC(=N)N)C(=O)NCC(=O)N[C@@H](CCCNC(=N)N)C(=O)NCC(=O)N[C@@H](CCCCNC(=O)CCCCCCCCCCCCCCCCC(=O)O)C(=O)O)C(C)C
– | 3780 | – | CCCCCCCCCCCCCCCC(=O)N[C@@H](CCC(=O)NCCOCCOCC(=O)NCCOCCOCC(=O)NCCCC[C@H](NC(=O)[C@H](C)NC(=O)[C@H](C)NC(=O)[C@H](CCC(N)=O)NC(=O)CNC(=O)[C@H](CCC(=O)O)NC(=O)[C@H](CC(C)C)NC(=O)[C@H](Cc1ccc(O)cc1)NC(=O)[C@H](CO)NC(=O)[C@H](CO)NC(=O)[C@@H](NC(=O)[C@H](CC(=O)O)NC(=O)[C@H](CO)NC(=O)[C@@H](NC(=O)[C@H](Cc1ccccc1)NC(=O)[C@@H](NC(=O)CNC(=O)[C@H](CCC(=O)O)NC(=O)C(C)(C)NC(=O)[C@@H](N)Cc1c[nH]cn1)[C@@H](C)O)[C@@H](C)O)C(C)C)C(=O)N[C@@H](CCC(=O)O)C(=O)N[C@@H](Cc1ccccc1)C(=O)N[C@H](C(=O)N[C@@H](C)C(=O)N[C@@H](Cc1c[nH]c2ccccc12)C(=O)N[C@@H](CC(C)C)C(=O)N[C@H](C(=O)N[C@@H](CCCNC(=N)N)C(=O)NCC(=O)N[C@@H](CCCNC(=N)N)C(=O)NCC(=O)O)C(C)C)[C@@H](C)CC)C(=O)O
